Assays:
prostaglandin F2 = assay: Serum prostaglandin F2 by ELISA after single intravenous infusion to cynomolgus monkeys; format: in vivo, cynomolgus monkey; settings: for The measured concentration of prostaglandin F2: 1 mg/kg intravenous infusion; for Effect on prostaglandin F2 content (in words): cynomolgus monkeys, after administration (0.58 mg/kg as printed in b199), fluctuating increase at 24 h; for The measured concentration of prostaglandin F2, Mean: mean of 3 animals, before administration 1088.09
Protocol: (§1) An experiment with three cynomolgus monkeys was performed according to the table below.
(§2) Four male cynomolgus monkeys were purchased from Guangxi Xiongsen Primate Development and Experiment Co., Ltd., and all of them were healthy cynomolgus monkeys that had passed the physical examination and have no abnormalities. Among them, three cynomolgus monkeys were used in the experiment of administration and the remaining one was used for preparing blank plasma.
(§3) Before administration, and 6, 24, 48 and 72 hours after the start of administration, 1 mL of blood was collected from the femoral vein or other suitable vein, and placed in a blood collection tube without anticoagulant. After collected, the blood sample was placed on ice and allowed to stand for 30-60 minutes before being centrifuged at 3,500 rpm for 10 minutes at 2-8° C. to separate the serum. The collected serum was stored at −80° C. before being analyzed.
(§4) Prostaglandins E2 and F2 in serum samples were analyzed by conventional ELISA methods. The measurement results are as follows.
(§5) The concentrations of prostaglandins E2 and F2 in the serum after single administration to cynomolgus monkeys by intravenous infusion

prostaglandin E2 = assay: Serum prostaglandin E2 by ELISA after single intravenous infusion to cynomolgus monkeys; format: in vivo, cynomolgus monkey; settings: for The measured concentration of prostaglandin E2: 1 mg/kg intravenous infusion; for The measured concentration of prostaglandin E2, Mean: mean of 3 animals, before administration 469.60
Protocol: as §1, §2, §3, §4, §5

AKR1C3 = target: T1, AKR1C3 (Homo sapiens, UniProt P42330); assay: In vitro AKR1C3 activity: production of reduced progesterone (20α-dihydroprogesterone) by LC/MS; format: biochemical; settings: reaction 30 min; for AKR1C3 activity % / activity at 5 µM: negative control = 100
T1 sequence (P42330 1-323): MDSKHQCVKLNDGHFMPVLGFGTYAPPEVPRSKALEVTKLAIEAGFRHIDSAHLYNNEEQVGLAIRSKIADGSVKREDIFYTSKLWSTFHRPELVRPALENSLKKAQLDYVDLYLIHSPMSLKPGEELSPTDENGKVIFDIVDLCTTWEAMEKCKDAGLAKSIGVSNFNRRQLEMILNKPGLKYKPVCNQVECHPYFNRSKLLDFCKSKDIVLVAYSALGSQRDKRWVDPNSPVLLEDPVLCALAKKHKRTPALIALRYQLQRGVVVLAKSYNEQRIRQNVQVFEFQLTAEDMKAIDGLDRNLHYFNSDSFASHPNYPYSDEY
Protocol: Experimental apparatus: Waters Acquity I Class UPLC Ultra Performance Liquid Chromatograph equipped with a Xevo G2-XS Q Tof HRMS Quadrupole Time-of-flight High-Resolution Mass Spectrometer
1. PBS phosphate buffered saline solution,
2. PBS phosphate buffered saline solution of 20 mM NADPH
3. PBS phosphate buffered saline solution of 250 μg/mL AKR1C3
5. 50% MeOH/H2O solution of 250 μM progesterone
6. 100% acetonitrile solution of 1 μg/mL propranolol
In step 1, the reaction mixtures were prepared into Eppendorf tubes in quadruplicate (n=4) according to the table below and mixed gently.
In step 2, the above mixtures were pre-incubated in duplicate at 37° C. for 30 minutes and 60 minutes.
In step 3, another 10 μL of PBS phosphate buffered saline solution of 20 mM NADPH and 2 μL of 50% MeOH/H2O solution of 250 μM progesterone were added to each Eppendorf tube and mixed gently.
In step 4, 50 μL of the mixture in the above step was immediately transferred to 100 μL of 100% acetonitrile solution of 1 μg/mL propranolol (internal standard (IS)).
In step 5, the remaining samples were incubated at 37° C. for 30 minutes, and 100 μL of 100% acetonitrile solution of 1 μg/mL propranolol (internal standard (IS)) was added.
In step 6, 100 μL of reagent water was added to all the samples, vortexed at 1,100 rpm for 5 minutes, and centrifuged at 15,000 rpm for 10 minutes at room temperature.
In step 7, all the samples were loaded on LC/MS to determine the content of reduced progesterone, namely 20α-dihydroprogesterone.
The test conditions for the LC-MS apparatus are shown below
In step 9, the reduced progesterone (20α-dihydroprogesterone) is calculated: the peak area of the reduced progesterone, namely 20α-dihydroprogesterone and propranolol, in each sample was determined by LC/MS. The peak area ratios of reduced progesterone to propranolol (i.e., the ratios in the above table) were calculated, and when the time is 0 the ratio is set to 0%.
AKR1C3 activity (%)=[(the amount of reduced progesterone after normalization of the sample) 30 min−(the amount of reduced progesterone after normalization of the sample) 0 min]/[(the amount of reduced progesterone after normalization of the negative control group) 30 min−(the amount of reduced progesterone after normalization of the negative control group) 0 min]*100.
The AKR1C3 activity results in the above table were calculated according to the above formula.

[1] = animal 101, 6 h after start of administration
[2] = animal 101, 24 h after start of administration
[3] = animal 101, 48 h after start of administration
[4] = animal 101, 72 h after start of administration
[5] = animal 102, 6 h after start of administration
[6] = animal 102, 24 h after start of administration
[7] = animal 102, 48 h after start of administration
[8] = animal 102, 72 h after start of administration
[9] = animal 103, 6 h after start of administration
[10] = animal 103, 24 h after start of administration
[11] = animal 103, 48 h after start of administration
[12] = animal 103, 72 h after start of administration
[13] = 5 μM AST-3424, pre-incubation 30 min at 37° C.
[14] = 5 μM AST-3424, pre-incubation 60 min at 37° C.

C[C@H](OP(=O)(N1CC1)N1CC1)c1ccc([N+](=O)[O-])c(Oc2cccc(C(=O)N(C)C)c2)c1 [AST-3424]
The measured concentration of prostaglandin F2 (prostaglandin F2; [1]): 165.32 pg/mL | The measured concentration of prostaglandin F2 (prostaglandin F2; [2]): 816.63 pg/mL | The measured concentration of prostaglandin F2 (prostaglandin F2; [3]): 183.73 pg/mL | The measured concentration of prostaglandin F2 (prostaglandin F2; [4]): 441.76 pg/mL | The measured concentration of prostaglandin F2 (prostaglandin F2; [5]): 260.80 pg/mL | The measured concentration of prostaglandin F2 (prostaglandin F2; [6]): 3460.25 pg/mL | The measured concentration of prostaglandin F2 (prostaglandin F2; [7]): 216.12 pg/mL | The measured concentration of prostaglandin F2 (prostaglandin F2; [8]): 968.01 pg/mL | The measured concentration of prostaglandin F2 (prostaglandin F2; [9]): 300.65 pg/mL | The measured concentration of prostaglandin F2 (prostaglandin F2; [10]): 4208.19 pg/mL | The measured concentration of prostaglandin F2 (prostaglandin F2; [11]): 541.05 pg/mL | The measured concentration of prostaglandin F2 (prostaglandin F2; [12]): 1369.67 pg/mL | Effect on prostaglandin F2 content (in words) (prostaglandin F2; 0.58 mg/kg): greatly reduce the content of PGF2 | Effect on prostaglandin F2 content (in words) (prostaglandin F2; listed as AST3424, 0.58 mg/kg): decreased | The measured concentration of prostaglandin F2, Mean (prostaglandin F2; 6 h): 242.26 pg/mL | The measured concentration of prostaglandin F2, Mean (prostaglandin F2; 24 h): 2828.36 pg/mL | The measured concentration of prostaglandin F2, Mean (prostaglandin F2; 48 h): 313.63 pg/mL | The measured concentration of prostaglandin F2, Mean (prostaglandin F2; 72 h): 926.48 pg/mL | The measured concentration of prostaglandin E2 (prostaglandin E2; [1]): 210.67 pg/mL | The measured concentration of prostaglandin E2 (prostaglandin E2; [2]): 450.48 pg/mL | The measured concentration of prostaglandin E2 (prostaglandin E2; [3]): 322.13 pg/mL | The measured concentration of prostaglandin E2 (prostaglandin E2; [4]): 408.15 pg/mL | The measured concentration of prostaglandin E2 (prostaglandin E2; [5]): 214.73 pg/mL | The measured concentration of prostaglandin E2 (prostaglandin E2; [6]): 822.21 pg/mL | The measured concentration of prostaglandin E2 (prostaglandin E2; [7]): 168.84 pg/mL | The measured concentration of prostaglandin E2 (prostaglandin E2; [8]): 521.78 pg/mL | The measured concentration of prostaglandin E2 (prostaglandin E2; [9]): 670.73 pg/mL | The measured concentration of prostaglandin E2 (prostaglandin E2; [10]): 2735.20 pg/mL | The measured concentration of prostaglandin E2 (prostaglandin E2; [11]): 276.35 pg/mL | The measured concentration of prostaglandin E2 (prostaglandin E2; [12]): 663.03 pg/mL | Effect on prostaglandin E2 content (in words) (prostaglandin E2; cynomolgus monkeys, after administration (0.58 mg/kg), fluctuating increase at 24 h): decreased | The measured concentration of prostaglandin E2, Mean (prostaglandin E2; 6 h): 365.38 pg/mL | The measured concentration of prostaglandin E2, Mean (prostaglandin E2; 24 h): 1335.97 pg/mL | The measured concentration of prostaglandin E2, Mean (prostaglandin E2; 48 h): 255.78 pg/mL | The measured concentration of prostaglandin E2, Mean (prostaglandin E2; 72 h): 530.99 pg/mL | AKR1C3 activity % (AKR1C3; [13]): 3.9% | activity at 5 µM (AKR1C3; [13]): 3.9% | AKR1C3 activity % (AKR1C3; [14]): 9.2% | activity at 5 µM (AKR1C3; [14]): 9.2% | Peak area ratio of reduced progesterone to propranolol (AKR1C3; pre-incubation 30 min, negative control 0.1506): 0.0074 | Peak area ratio of reduced progesterone to propranolol (AKR1C3; pre-incubation 60 min, negative control 0.1343): 0.0137
